Experimental data reported in patent US9724331B2, “Use of maleimide derivatives for preventing and treating leukemia” (CENTOGENE AG, priority 2012, dated 2017).

Tests used:
Assay in all cases: Cell cycle analysis, propidium iodide staining, flow cytometry
Format in all cases: cell-based, human
Jurkat cells = details: 1 μM PDA-66, mean±SD
Method: (§1) After treatment cells were harvested and washed twice in PBS. Cells were fixed with 70% ethanol and incubated with 1 mg/ml Ribonuclease A (Sigma-Aldrich, St. Louis, USA) for 30 min at 37° C. After washing the cells twice in PBS, they were stained with PI (50 μg/ml) and DNA content was determined by flow cytometry. All cell lines were incubated with PDA-66 and cell cycle distribution was determined using Propidium iodide staining.
(§2) The treatment with PDA-66 influenced the four cell lines differently. […] G2 arrest could be detected in RS4;11 and Molt-4 cells after 48 h of treatment. Treatment of Jurkat cells induced a decrease of cells in G0/G1 phase in favor of cells in S phase.

RS4;11 cells = system: RS4;11 cells
Method: as §1, §2

SEM cells = system: SEM cells
Method: as §1, §2

Molt-4 cells = system: Molt-4 cells
Method: as §1, §2

CC(=O)c1ccc(C2=C(c3c(C)[nH]c4ccccc34)C(=O)N(C)C2=O)cc1 [PDA-66, 3-(4-Acetylphenyl)-1-methyl-4-(2-methyl-1H-indol-3-yl)-1H-pyrrole-2,5-dione]
amount of cells in G0/G1 phase (Jurkat cells): 47.3±4.3%
amount of cells in S phase (Jurkat cells): 20.0±1.1%
amount of cells in G0/G1 phase (RS4;11 cells; 1 μM PDA-66, 48 h, mean±SD): 47.3±2.7%
amount of cells in G2 phase (RS4;11 cells; 1 μM PDA-66, 48 h, mean±SD): 42.1±4.4%
cells in G0/G1 phase (RS4;11 cells; smaller dosages than 1 μM): significant increase
amount of cells in G0/G1 (SEM cells; 0.5 μM PDA-66, 48 h, mean±SD): 69.3±2.7%
effect on cell cycle (SEM cells; 1 μM PDA-66, 48 h): did not affect the cell cycle significantly
amount of cells in G0/G1 phase (Molt-4 cells; 1 μM PDA-66, 48 h, mean±SD): 45.0±7.3%
amount of cells in G2 phase (Molt-4 cells; 1 μM PDA-66, 48 h, mean±SD): 41.0±5.8%
cells in G0/G1 phase (Molt-4 cells; smaller dosages than 1 μM): significant increase
